The values below come from US20060240494A1, “Biocidal molecules, macromolecular targets and methods of production and use” (priority 2000, published 2006).

One test has as its system LPS from S. typhimurium. The settings on record: nitrocellulose membrane-bound LPS.
In another test the target is DnaK (Escherichia coli, UniProt P0A6Y8). Particulars: 1 μg DnaK; biotin-labeled peptide.
Test [1] concerns the target E. coli DnaK aa583-615, hinge region between helices D and E (Escherichia coli, UniProt P0A6Y8). The settings on record: 5 μg fragment; 10 μg/mL biotin-labeled peptide.
Description: (§1) A control strip was stained with amido black 10B to verify the presence of all DnaK fragments on the nitrocellulose sheet.
The next test deals with GroEL (Escherichia coli, UniProt P0A6F5). The settings on record: nitrocellulose membrane-bound protein; 10 μg/ml peptide.
Sequence of GroEL (P0A6F5 2-548 limits assumed): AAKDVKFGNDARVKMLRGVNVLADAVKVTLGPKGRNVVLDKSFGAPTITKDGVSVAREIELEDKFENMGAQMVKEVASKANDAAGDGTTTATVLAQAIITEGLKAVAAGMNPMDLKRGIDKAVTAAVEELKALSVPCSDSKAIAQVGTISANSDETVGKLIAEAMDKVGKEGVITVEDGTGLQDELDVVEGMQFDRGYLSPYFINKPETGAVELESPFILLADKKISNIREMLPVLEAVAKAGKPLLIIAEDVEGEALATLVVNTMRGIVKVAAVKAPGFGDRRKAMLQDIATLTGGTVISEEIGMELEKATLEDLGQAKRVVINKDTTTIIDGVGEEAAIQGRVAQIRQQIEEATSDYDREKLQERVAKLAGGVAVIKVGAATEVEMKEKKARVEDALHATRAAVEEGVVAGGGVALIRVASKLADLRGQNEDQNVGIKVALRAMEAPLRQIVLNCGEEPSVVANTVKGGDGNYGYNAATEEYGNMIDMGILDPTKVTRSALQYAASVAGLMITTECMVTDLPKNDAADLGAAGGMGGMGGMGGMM
Test [2] has as its target E. coli DnaK aa397-439, conventional peptide binding pocket (Escherichia coli, UniProt P0A6Y8). The settings on record: non-specific binding; 10 μg/mL biotin-labeled peptide.
Description: as §1
The next test addresses Hsp70 (Homo sapiens, UniProt P0DMV8). The settings on record: nitrocellulose membrane-bound protein; 10 μg/ml peptide.
Test [3] has as its system E. coli strains (including TG-1, or K-12).
In the next test the test system is E. coli LPS. Particulars: nitrocellulose membrane-bound LPS.
In the next test the target is T1, recombinant E. coli DnaK (Escherichia coli, UniProt P0A6Y8).
T1 construct: purchased StressGen, Victoria, Canada
T1 sequence (P0A6Y8 whole entry): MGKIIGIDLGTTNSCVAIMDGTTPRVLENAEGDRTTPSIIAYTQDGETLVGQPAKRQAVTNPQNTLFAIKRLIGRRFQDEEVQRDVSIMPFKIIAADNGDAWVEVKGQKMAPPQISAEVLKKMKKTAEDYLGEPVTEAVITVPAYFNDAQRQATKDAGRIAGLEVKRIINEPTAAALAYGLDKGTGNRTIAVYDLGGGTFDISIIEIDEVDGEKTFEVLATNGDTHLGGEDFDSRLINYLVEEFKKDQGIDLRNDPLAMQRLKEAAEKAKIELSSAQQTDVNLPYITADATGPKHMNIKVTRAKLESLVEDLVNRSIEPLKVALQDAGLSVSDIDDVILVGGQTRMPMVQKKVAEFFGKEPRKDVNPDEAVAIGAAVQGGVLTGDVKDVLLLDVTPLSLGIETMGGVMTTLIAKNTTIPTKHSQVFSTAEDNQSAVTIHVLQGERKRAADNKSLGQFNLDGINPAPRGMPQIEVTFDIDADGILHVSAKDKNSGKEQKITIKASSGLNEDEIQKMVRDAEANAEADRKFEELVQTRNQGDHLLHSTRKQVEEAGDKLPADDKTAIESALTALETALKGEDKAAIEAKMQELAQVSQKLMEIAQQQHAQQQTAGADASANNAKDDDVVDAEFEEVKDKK
Description: EnzChek ATPase assay, recombinant DnaK. The settings on record: 50 molar equivalents of peptide; 22° C., 30 min; UV absorbance at 360 nm. It is filed as biochemical. The source says: To determine whether the proline-rich antibacterial peptides that were predicted to bind to DnaK between the peptide binding pocket and the C-terminus would interfere with ATPase activity, a recently developed continuous spectrophotometric (colorimetric) ATPase activity assay [Rieger, C. E. et al, (1997) Anal. Biochem. 246: 86-95] was used. This assay uses using 2-amino-6-mercapto-7-methylpurine ribonucleoside (MESG)/purine nucleoside phosphorylase reaction to detect the released inorganic phosphate (EnzChek ATPase determination kit from Molecular Probes, Eugene, USA). Assays were performed in 500 μL tubes in duplicates in a total volume of 125 μL containing 20 mM tris(hydroxymethyl)amino-ethane (Tris)-HCl, pH 7.6, 1 mM MgCl2, […] (except in assaying the baseline), 5 μg of DnaK (recombinant DnaK protein from StressGen,Victoria, Canada) and 50 molar equivalents of the particular peptide, MESG and the purine nucleoside phosphorylase recommended by the manufacturer. After incubation at 22° C. for 30 min, 100 μL of the reaction mixture was transferred to a quartz cuvette and the ultraviolet (UV) absorbance at 360 nm was measured. The assay was run in a miniaturized form to increase the concentration and therefore the enzymatic activity of DnaK. In a larger, standard format the ATPase activity of DnaK without peptide addition was 6 pmol/μg/min, in line with the published data of 4 pmol/μg/min [Liberek, K. et al, (1991) Proc. Natl. Acad. Sci. USA 88: 2874-2878].

In test [4] the test system is β-galactosidase activities of live E. coli TG-1 cells. It counts as cell-based.
In test [5] the test system is alkaline phosphatase activities of live E. coli TG-1 cells. It is filed as cell-based.
Another test relates to E. coli D22. Particulars: Otvos et al, 2000, Protein Science; cited from earlier work.
Test [6] deals with E. coli DnaK fragment aa583-615 (D-E helix hinge) (Escherichia coli, UniProt P0A6Y8). The test can be described thus: Fluorescence polarization with synthetic DnaK fragment aa583-615. It counts as binding. Particulars: Tris HCl at pH 8.0; for binding to E. coli D-E helix hinge region aa583-615 at high concentration: 128 μM fragment. As to the method: The binding of the synthetic DnaK fragments to their fluorescein-labeled pyrrhocoricin counterparts was also assessed in solution, by fluorescence polarization [Lundblad, J. R. et al, (1996) Mol. Endocrinol. 10: 607-612]. For these experiments, the unlabeled peptides were serially diluted in PBS (pH 7.4) or 0.1 M Tris-HCl (pH 8.0) containing 0.1 M ethylene-diamine-tetraacetic acid (EDTA) in 50 μL final volume in 6×50 mm disposable glass borosilicate tubes. The fluoresceinated peptides were added to each tube in a 50 μL aliquot to a final concentration of 1 nM and tubes were incubated at 37° C. for 5 minutes. The extent of fluorescence anisotropy was measured on a Beacon 2000 fluorescence polarization instrument (PanVera, Madison, Wis.) and calculated as millipolarization values. The filters used were 485 nm excitation and 535 nm emission with 3 nm band width. Non-linear curve fitting was done by using a dose-response logistical transition [y=a0+a1/(1+x/a2)^a^3] and the Levenberg-Marquardt Algorithm within the SlideWrite software package. The provided Kd value (a2 coefficient) was calculated by the program.
Sequence of E. coli DnaK fragment aa583-615 (D-E helix hinge) (P0A6Y8 584-616): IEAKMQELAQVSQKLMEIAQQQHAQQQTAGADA
To quantitatively characterize the pyrrhocoricin—D-E helix interaction, the complete binding curves were measured for E. coli DnaK fragments aa583-615 and aa588-615, both of SEQ ID NO: 10.

In test [7] the target is T2, S. aureus DnaK 554-585 (D-E helix fragment) (Staphylococcus aureus, UniProt P45554).
T2 sequence (P45554 554-585 limits assumed): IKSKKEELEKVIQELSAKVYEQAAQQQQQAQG
The test can be described thus: Fluorescence polarization with S. aureus DnaK D-E helix fragment. It counts as binding. Particulars: Tris HCl at pH 8.0.

The target in test [8] is blocked E. coli DnaK fragment aa591-615 (Escherichia coli, UniProt P0A6Y8). It is filed as binding.
Sequence of blocked E. coli DnaK fragment aa591-615 (P0A6Y8 592-616 limits assumed): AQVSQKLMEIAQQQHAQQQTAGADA
The conditions of test [9]: Hoffmann et al, 1999; cited from earlier work.
[10] abbreviates: peptide 32 μg/mL, live E. coli TG-1, three independent assays.
The mark [11] stands for this setting: peptide 32 μg/mL, live E. coli TG-1, four independent assays.

Like-named read-outs stand apart in the source and are kept apart here. Non-standard residues stand in square brackets, D forms with d. No end group written: not given here. *: point of attachment. Biotin = O=C1N[C@H]2[C@H](CS[C@H]2CCCCC(=O)*)N1

Sequence of E. coli DnaK aa583-615, hinge region between helices D and E (P0A6Y8 584-616 limits assumed): as the sequence (P0A6Y8 584-616) above
Sequence of E. coli DnaK aa397-439, conventional peptide binding pocket (P0A6Y8 397-439): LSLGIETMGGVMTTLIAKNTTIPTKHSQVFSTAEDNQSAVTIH
Sequence of DnaK (P0A6Y8 whole entry, the tested form may be a part): as the sequence (P0A6Y8 whole entry) above
Sequence of Hsp70 (P0DMV8 whole entry): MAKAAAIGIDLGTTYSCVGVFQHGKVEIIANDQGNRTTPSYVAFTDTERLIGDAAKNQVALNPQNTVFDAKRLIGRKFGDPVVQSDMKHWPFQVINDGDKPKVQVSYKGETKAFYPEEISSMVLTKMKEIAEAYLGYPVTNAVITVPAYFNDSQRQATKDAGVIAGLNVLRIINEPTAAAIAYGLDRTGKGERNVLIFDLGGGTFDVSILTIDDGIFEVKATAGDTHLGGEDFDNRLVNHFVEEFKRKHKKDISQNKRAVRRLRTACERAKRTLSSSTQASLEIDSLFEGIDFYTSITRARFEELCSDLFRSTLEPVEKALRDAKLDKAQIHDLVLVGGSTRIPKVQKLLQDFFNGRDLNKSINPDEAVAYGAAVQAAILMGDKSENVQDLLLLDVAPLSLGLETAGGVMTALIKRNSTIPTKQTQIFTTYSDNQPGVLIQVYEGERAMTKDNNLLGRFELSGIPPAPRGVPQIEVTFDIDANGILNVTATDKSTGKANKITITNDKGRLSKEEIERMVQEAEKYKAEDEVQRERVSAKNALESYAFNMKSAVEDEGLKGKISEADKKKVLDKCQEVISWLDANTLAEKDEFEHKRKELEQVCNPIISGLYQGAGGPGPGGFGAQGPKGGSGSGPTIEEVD

“Biotin-KVDKGSYLPRPTPPRPIYNRN [biotin-K-pyrrhocoricin]”: the “binding to S. typhimurium LPS on Western-blot” value with LPS from S. typhimurium was “did not label LPS bands”. For the same substance, the “binding to DnaK on the peptide blot” value at DnaK was “bound strongly”. The “dot blot binding to D-E helix hinge fragment” value in test [1] is reported as “bound”. Besides, the “binding to GroEL on the peptide blot” value on GroEL is given as “very weak peptide binding”. Further, in test [2], the “dot blot binding to peptide-binding pocket fragment” value is “similarly bound”. The “binding to Hsp70 on the peptide blot” value at Hsp70 is “very weak peptide binding”. The “concentration range killing E. coli strains” value in test [3] is recorded as “submicromolar range”. Besides, the “binding to E. coli LPS on Western-blot” value in the test on E. coli LPS is “did not label LPS bands”.
In the case of “Cecropin A: membrane-active antimicrobial peptide; purchased from Bachem (KWKLFKKIEKVGQNIRDGIIKAGPAVAVVGQATQIAK)”, the “effect on ATPase activity of recombinant DnaK” value (from here on “effect on ATPase activity”) with recombinant E. coli DnaK is given as “did not influence”.
Take Conantokin G: in test [4], the “Inhibition of enzymatic activity after 1 hour (%) β-Galactosidase” value (from here on “Inhibition … (%) β-Galactosidase”) is “(−10) ± 10%”. Also, the “Inhibition of enzymatic activity after 1 hour (%) Alkaline Phosphatase” value (shortened to “Inhibition … (%) Alkaline Phosphatase”) in [5] is “(−3) ± 23%”.
Turning to “D-pyrrhocoricin: SEQ ID NO: 3 with all amino acids in the D configuration; inactive analog ([dV][dD][dK]G[dS][dY][dL][dP][dR][dP][dT][dP][dP][dR][dP][dI][dY][dN][dR][dN])”, in test [4] (setting [10]), the “Inhibition … (%) β-Galactosidase” value was “(−4) ± 43%”. For the same substance, in the test on E. coli D22, the “killing of E. coli D22” value was “completely inactive”. Also, the “effect on ATPase activity” value with recombinant E. coli DnaK is listed as “negligible effect”. Besides, the “Inhibition … (%) Alkaline Phosphatase” value in [5] (setting [11]) is reported as “(−6) ± 16%”.
As to “Magainin 2: antibacterial peptide that kills bacteria by disintegrating the membrane; from Bachem (GIGKFLHSAKKFGKAFVGEIMNS)”, the “Inhibition … (%) β-Galactosidase” value in test [4] (setting [10]) is listed as “(−50) ± 55%”. Further, the “effect on ATPase activity” value with recombinant E. coli DnaK is reported as “did not influence”. Also, the “Inhibition … (%) Alkaline Phosphatase” value in test [5] (setting [11]) is recorded as “(−23) ± 38%”.
Regarding NTDGSTDYGILQINSR, the “binding to E. coli D-E helix hinge region aa583-615” value in [6] (labeled peptide 1 nM) is given as “failed to bind”.
With “N—F-apidaecin: apidaecin with fluorescein label attached at the N-terminus”, in [6], the “binding to E. coli D-E helix hinge region aa583-615 at high concentration” value is “some binding”. In addition, the “binding to S. aureus D-E helix fragment” value in [7] is reported as “failed to bind”.
For “N—F-drosocin: drosocin with fluorescein label attached at the N-terminus (fluorescein-KGKPRPYSPRPTSHPRPIRV)”, the “binding to blocked E. coli DnaK fragment aa591-615” value in test [8] is on record as “failed to bind”. Further, the “binding to E. coli D-E helix hinge region aa583-615 at high concentration” value in [6] is given as “some binding”. In addition, in [7], the “binding to S. aureus D-E helix fragment” value was “failed to bind”.
For the substance “native glycosylated drosocin: native drosocin glycopeptide with a disaccharide in the mid-chain position (GKPRPYSPRPTSHPRPIRV; also: O-glycosylated disaccharide in mid-chain position; UniProt P36193 22-40, looked up)”, the “antibacterial activity when injected into mice” value in [9] was “no antibacterial activity”.
